Results as given in ChEMBL document CHEMBL1201862, “PubChem BioAssay data set” (2004).
The source made the active and inactive calls.

What was measured:
Genome polyprotein [1] = biological target: Genome polyprotein (Hepatitis C virus, UniProt Q2Q167); assay: disruption of hepatitis C core self-association – biochemical, TR-FRET, dose response (AID 2159); set-up: species or system Hepacivirus hominis;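 further: blocks dimerization of HCV core protein measured by TR-FRET between tagged core106 pairs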
Sequence of Genome polyprotein (Hepatitis C virus, UniProt Q2Q167) (Q2Q167 whole entry): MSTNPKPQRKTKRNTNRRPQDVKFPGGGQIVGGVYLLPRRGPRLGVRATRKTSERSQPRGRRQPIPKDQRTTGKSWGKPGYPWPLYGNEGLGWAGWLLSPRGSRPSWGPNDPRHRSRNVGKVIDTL

[2] = luciferase reporter signal suppression in cells – H4 neuroglioma cells, luminescence, dose response (AID 1990); assay type: functional, cell-based
[3] = biological target: T1, Photoreceptor-specific nuclear receptor (Homo sapiens, UniProt Q9Y5X4); assay type: functional;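 further: potency for compounds that break the NR2E3 corepressor complex and count as activators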
T1 sequence (Q9Y5X4 whole entry): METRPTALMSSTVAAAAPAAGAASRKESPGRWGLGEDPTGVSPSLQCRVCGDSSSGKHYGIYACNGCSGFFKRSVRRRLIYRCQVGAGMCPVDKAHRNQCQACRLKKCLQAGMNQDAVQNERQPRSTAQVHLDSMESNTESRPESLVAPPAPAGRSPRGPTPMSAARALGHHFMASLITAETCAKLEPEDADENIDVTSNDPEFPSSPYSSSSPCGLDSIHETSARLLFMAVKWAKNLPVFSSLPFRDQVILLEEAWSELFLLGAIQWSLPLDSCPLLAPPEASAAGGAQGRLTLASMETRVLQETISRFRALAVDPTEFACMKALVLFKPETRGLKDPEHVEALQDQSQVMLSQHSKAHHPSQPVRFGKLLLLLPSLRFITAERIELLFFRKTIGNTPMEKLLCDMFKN

[4] = Luminescence Cell-Based Dose Response HTS to Identify Inhibitors of 5'UTR Stem-Loop Driven Prion Protein mRNA Translation in H4 Neuroglioblastoma Cells. [Related pubchem assays: 1827 (Project Summary), 1813 (Primary HTS)]; assay type: functional
[5] = alpha-synuclein stem-loop luciferase translation blockers – H4 neuroglioma cells, luminescence, confirmation (AID 1988); assay type: functional, cell-based
Beta-lactamase [6] = biological target: Beta-lactamase (Pseudomonas aeruginosa, UniProt Q79MP6);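 further: biochemical dose-response test of metallo-beta-lactamase enzyme inhibition, read out by epi-absorbance; purified recombinant IMP-1 metallo-beta-lactamase with nitrocefin as substrate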
Sequence of Beta-lactamase (Pseudomonas aeruginosa, UniProt Q79MP6) (Q79MP6 whole entry): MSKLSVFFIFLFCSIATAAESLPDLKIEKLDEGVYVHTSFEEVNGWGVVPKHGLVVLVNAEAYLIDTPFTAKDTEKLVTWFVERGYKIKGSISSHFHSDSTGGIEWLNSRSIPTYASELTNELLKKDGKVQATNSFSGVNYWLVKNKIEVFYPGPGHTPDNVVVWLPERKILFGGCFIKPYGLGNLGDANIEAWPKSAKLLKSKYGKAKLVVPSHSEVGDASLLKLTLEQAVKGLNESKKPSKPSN

[7] = biological target: T2, Peroxisome proliferator-activated receptor gamma/Nuclear receptor corepressor 2 (Homo sapiens, UniProt P37231+Q9Y618); assay type: functional
T2 sequence (P37231 whole entry): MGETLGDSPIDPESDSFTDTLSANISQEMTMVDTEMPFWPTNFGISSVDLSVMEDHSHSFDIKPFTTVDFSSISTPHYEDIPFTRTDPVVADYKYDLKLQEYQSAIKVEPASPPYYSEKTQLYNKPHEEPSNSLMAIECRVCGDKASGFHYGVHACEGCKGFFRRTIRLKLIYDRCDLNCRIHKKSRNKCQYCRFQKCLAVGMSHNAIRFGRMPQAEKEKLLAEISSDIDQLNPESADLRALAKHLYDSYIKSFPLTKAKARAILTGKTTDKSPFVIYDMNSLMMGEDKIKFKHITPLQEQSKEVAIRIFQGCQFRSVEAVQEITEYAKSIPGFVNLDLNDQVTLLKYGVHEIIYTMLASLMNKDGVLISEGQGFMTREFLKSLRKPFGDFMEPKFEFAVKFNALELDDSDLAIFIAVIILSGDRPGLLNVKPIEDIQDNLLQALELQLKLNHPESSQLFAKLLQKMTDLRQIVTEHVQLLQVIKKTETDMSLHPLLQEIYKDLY
T2 sequence (Q9Y618 whole entry): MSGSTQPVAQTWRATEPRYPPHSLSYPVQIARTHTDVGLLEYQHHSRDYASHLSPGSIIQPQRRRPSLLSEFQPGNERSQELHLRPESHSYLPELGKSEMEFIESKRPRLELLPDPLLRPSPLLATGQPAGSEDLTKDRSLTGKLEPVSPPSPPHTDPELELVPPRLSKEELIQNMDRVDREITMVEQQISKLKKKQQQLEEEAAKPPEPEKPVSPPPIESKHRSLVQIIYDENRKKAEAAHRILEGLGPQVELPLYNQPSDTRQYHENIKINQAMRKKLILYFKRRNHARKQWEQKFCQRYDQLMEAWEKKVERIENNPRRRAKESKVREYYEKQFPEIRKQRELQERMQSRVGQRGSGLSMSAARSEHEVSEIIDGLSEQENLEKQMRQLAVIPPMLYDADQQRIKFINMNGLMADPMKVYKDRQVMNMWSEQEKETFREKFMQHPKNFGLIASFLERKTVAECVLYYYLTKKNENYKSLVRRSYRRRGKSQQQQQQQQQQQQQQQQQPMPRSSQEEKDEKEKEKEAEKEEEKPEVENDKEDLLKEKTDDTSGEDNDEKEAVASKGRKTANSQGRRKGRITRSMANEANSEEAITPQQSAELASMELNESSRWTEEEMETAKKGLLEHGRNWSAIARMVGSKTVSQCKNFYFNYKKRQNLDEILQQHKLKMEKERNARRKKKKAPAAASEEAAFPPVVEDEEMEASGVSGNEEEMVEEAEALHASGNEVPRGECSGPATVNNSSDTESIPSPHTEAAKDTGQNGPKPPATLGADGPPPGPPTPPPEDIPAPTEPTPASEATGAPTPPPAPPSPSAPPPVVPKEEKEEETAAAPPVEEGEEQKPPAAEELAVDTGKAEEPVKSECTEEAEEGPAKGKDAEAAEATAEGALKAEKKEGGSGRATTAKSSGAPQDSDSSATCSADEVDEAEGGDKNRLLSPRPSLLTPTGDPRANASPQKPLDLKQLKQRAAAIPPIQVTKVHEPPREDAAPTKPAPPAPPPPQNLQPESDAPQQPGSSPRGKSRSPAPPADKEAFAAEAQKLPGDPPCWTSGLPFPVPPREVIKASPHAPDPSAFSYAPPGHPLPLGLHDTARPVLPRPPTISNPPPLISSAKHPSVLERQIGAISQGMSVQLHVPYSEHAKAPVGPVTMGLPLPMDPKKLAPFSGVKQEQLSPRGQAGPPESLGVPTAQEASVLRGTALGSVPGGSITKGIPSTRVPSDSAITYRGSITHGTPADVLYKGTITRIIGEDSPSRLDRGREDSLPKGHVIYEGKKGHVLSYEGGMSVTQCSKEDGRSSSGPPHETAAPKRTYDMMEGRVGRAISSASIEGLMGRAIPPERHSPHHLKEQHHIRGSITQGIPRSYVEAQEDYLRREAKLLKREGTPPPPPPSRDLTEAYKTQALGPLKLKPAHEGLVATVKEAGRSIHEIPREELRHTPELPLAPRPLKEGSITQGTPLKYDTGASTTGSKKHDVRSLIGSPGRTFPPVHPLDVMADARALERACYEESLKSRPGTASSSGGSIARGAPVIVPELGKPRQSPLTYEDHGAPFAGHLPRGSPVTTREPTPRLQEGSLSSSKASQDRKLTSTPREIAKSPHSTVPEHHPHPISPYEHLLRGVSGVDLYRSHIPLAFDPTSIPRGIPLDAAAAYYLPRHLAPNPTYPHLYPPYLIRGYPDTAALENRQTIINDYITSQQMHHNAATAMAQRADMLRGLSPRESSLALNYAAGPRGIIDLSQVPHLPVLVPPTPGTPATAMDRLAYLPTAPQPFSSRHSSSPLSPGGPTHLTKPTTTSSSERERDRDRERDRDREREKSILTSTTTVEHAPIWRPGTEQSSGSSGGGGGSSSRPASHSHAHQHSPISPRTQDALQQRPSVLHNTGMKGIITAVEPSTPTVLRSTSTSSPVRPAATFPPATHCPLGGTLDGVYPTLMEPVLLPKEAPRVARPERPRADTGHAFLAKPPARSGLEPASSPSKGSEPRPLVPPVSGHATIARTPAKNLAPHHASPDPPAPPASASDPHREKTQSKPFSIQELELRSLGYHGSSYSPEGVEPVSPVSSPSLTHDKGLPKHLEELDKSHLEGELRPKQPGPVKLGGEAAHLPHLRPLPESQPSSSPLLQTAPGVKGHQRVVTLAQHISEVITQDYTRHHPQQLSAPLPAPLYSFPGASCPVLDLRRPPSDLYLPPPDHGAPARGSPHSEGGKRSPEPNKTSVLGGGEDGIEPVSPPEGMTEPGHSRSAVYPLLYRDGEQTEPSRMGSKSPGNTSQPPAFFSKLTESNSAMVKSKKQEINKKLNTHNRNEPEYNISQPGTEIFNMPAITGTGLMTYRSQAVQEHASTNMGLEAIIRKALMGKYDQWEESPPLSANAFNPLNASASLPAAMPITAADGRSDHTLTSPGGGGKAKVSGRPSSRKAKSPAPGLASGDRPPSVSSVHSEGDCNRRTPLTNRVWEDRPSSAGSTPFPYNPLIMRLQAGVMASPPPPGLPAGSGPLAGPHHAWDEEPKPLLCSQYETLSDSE

Beta-lactamase [8] = biological target: Beta-lactamase (Salmonella choleraesuis (strain SC-B67), UniProt Q5J463)
Sequence of Beta-lactamase (Salmonella choleraesuis (strain SC-B67), UniProt Q5J463) (Q5J463 whole entry): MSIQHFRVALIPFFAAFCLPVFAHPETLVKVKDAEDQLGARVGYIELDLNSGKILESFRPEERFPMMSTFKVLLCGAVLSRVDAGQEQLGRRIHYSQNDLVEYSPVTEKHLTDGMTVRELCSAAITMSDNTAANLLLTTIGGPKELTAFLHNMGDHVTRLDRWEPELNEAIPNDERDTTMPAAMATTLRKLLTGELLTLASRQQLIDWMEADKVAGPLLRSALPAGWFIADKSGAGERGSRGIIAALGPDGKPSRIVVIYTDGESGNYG

[9] = Cytotoxicity screening for potential Inhibitors of Bacterial Capsule Biogenesis. [Related pubchem assays (depositor defined):AID488970]; assay type: functional
[10] = biological target: Histone-lysine N-methyltransferase NSD2 (Homo sapiens, UniProt O96028); assay type: biochemical
[11] = biological target: 5-hydroxytryptamine receptor 1A (Homo sapiens, UniProt P08908); assay type: functional
[12] = biological target: T2, Peroxisome proliferator-activated receptor gamma/Nuclear receptor corepressor 2; assay: Counterscreen for NR2E3 inverse agonists: TR-FRET-based biochemical high throughput dose response assay to identify inverse agonists of the interaction between peroxisome proliferator-activated receptor gamma (PPARg) and nuclear receptor co-repressor 2 (NCOR2).; assay type: functional
[13] = biological target: T1, Photoreceptor-specific nuclear receptor; assay: ligands suppressing NR2E3 nuclear receptor activity – biochemical, TR-FRET, dose response (AID 463256); assay type: functional
Ephrin type-A receptor 4 = Ephrin type-A receptor 4 (Mus musculus, UniProt Q03137); assay: EphA4 ligand-binding antagonists – biochemical, colorimetric, mouse EphA4, primary screen (AID 689); assay type: functional
[14] = biological target: T3, RNA-binding protein pos-1 (Caenorhabditis elegans, UniProt G5EF15); assay: disruptors of C. elegans POS-1 RNA interaction – biochemical, fluorescence polarization, dose response (AID 1964);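 further: purified POS-1 fused to maltose binding protein made in E. coli; potency of compounds blocking POS-1 binding to fluorescent RNA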
T3 sequence (G5EF15 whole entry): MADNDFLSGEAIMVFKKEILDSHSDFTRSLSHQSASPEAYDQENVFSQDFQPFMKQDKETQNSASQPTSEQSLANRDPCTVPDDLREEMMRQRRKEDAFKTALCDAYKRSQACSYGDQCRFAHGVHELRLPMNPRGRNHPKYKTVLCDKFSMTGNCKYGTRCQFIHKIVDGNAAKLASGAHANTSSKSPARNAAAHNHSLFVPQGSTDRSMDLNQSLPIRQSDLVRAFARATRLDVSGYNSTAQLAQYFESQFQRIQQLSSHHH

Bcl-2-like protein 10 = biological target: T4, Bcl-2-like protein 10 (Homo sapiens, UniProt Q9HD36); assay: Bcl-B/TR3 peptide binding disruption – biochemical, fluorescence polarization, FITC-TR3 peptide, selectivity assay for Bfl-1 inhibitor project, primary screen (AID 748);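 further: fluorescence polarization from a fluorescein-labelled TR3 peptide binding purified Bcl-B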
T4 sequence (Q9HD36 whole entry): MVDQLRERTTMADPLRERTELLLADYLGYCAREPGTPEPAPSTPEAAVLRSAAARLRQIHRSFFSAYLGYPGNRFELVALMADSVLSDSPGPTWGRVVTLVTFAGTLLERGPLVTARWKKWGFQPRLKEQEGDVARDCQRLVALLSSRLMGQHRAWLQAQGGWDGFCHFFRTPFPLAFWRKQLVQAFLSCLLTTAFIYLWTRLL

[15] = biological target: T5, Zinc finger protein mex-5 (Caenorhabditis elegans, UniProt Q9XUB2); assay: potency of MEX-5 RNA-binding blockers – biochemical, C. elegans, fluorescence polarization, dose response (AID 1960)
T5 sequence (Q9XUB2 whole entry): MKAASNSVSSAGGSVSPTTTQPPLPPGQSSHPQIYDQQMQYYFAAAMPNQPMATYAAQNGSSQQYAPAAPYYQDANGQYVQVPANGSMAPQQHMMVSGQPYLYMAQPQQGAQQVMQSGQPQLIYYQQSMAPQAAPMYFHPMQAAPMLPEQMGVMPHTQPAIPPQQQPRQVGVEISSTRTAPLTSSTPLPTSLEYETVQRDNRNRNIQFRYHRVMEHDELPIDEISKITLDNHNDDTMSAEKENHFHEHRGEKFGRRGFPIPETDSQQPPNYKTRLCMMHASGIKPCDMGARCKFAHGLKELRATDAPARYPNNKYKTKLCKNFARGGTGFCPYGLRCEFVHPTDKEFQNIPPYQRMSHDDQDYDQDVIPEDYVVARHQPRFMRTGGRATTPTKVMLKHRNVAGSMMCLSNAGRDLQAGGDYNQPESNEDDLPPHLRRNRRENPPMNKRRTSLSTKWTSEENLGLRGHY

14-3-3 protein gamma = 14-3-3 protein gamma (Homo sapiens, UniProt P61981); assay: modulators of 14-3-3 gamma client binding – dose response (AID 711); assay type: functional
[16] = biological target: T6, Replicative DNA helicase DnaB (Mycobacterium tuberculosis, UniProt P9WMR3); assay: DnaB intein splicing inhibitors, dose response, biochemical, cell-free fluorescence (AID 449749); assay type: functional
T6 sequence (P9WMR3 whole entry): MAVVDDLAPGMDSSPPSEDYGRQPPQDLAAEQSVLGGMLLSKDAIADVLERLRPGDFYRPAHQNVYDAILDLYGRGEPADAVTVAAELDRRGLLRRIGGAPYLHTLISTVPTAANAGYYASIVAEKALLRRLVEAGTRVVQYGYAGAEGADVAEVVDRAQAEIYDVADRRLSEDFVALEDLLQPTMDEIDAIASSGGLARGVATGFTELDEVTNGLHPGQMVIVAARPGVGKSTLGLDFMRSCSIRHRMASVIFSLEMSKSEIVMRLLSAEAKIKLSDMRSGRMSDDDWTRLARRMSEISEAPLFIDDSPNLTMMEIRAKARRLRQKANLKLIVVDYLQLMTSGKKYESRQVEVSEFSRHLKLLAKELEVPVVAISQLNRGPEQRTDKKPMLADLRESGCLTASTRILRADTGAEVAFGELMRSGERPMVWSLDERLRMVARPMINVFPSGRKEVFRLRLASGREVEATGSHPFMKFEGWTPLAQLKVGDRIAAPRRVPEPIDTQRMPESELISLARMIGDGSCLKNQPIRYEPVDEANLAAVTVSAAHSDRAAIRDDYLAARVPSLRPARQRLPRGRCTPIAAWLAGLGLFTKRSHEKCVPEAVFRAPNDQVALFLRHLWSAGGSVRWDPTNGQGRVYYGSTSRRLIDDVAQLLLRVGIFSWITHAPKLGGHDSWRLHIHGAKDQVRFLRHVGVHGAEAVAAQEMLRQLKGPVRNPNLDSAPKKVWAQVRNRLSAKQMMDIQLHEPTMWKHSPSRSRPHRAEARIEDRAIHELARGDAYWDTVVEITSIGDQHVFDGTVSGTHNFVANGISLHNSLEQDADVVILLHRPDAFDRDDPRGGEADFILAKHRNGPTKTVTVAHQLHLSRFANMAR

Protein RecA = biological target: T7, Protein RecA (Mycobacterium tuberculosis, UniProt P9WHJ3); assay: Fluorescence Cell-Free Homogeneous Dose Retest to Identify Inhibitors of RecA-Intein Splicing Activity. [Related pubchem assays (depositor defined):AID2097, AID2223, AID489010, AID492950]; assay type: functional
T7 sequence (P9WHJ3 whole entry): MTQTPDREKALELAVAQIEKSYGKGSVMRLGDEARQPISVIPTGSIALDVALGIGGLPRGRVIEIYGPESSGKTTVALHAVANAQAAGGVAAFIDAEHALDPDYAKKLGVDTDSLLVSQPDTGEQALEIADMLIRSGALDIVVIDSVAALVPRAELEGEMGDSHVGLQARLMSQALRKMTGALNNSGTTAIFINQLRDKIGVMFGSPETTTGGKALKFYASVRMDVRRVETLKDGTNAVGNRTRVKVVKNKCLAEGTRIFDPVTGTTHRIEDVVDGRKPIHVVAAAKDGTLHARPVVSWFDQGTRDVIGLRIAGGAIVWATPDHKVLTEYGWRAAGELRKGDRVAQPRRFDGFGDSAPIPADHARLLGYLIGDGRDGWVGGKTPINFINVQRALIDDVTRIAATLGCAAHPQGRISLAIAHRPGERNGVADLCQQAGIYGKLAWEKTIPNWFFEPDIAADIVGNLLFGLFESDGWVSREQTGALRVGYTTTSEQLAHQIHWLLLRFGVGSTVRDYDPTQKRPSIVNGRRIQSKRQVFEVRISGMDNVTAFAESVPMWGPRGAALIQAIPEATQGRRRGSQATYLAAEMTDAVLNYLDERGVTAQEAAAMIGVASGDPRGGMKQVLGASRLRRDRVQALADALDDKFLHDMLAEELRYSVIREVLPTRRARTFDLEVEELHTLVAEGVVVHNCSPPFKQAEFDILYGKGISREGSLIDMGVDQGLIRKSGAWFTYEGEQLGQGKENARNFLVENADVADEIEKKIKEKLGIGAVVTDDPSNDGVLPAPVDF

Genome polyprotein [17] = biological target: Genome polyprotein (dengue virus type 2, UniProt P29990); assay: flavivirus cap methylation enzyme inhibition – biochemical, confirmation dose response, primary screen (AID 588689); assay type: functional
Sequence of Genome polyprotein (dengue virus type 2, UniProt P29990) (P29990 2492-3391 limits assumed): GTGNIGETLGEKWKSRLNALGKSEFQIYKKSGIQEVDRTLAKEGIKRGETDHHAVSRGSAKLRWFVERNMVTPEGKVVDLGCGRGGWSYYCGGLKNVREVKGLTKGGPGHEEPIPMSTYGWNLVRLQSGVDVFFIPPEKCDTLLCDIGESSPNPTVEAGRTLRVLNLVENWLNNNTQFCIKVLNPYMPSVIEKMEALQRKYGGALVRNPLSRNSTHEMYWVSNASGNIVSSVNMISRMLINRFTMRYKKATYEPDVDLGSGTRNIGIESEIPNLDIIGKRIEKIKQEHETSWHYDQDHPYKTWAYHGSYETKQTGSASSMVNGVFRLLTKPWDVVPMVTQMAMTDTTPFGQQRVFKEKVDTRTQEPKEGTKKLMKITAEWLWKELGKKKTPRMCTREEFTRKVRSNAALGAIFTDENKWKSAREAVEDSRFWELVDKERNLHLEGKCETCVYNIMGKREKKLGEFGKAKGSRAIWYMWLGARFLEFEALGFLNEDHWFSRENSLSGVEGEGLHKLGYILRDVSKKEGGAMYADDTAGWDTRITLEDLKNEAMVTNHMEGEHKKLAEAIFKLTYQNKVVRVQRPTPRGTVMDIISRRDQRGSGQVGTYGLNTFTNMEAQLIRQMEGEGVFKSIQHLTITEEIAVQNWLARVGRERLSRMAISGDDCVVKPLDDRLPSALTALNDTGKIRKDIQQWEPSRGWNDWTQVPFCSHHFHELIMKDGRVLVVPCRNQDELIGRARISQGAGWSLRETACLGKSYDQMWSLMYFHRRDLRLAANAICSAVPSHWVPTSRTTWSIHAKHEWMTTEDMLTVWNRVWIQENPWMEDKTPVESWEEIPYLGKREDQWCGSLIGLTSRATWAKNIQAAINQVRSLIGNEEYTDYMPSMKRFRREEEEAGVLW

[18] = IC50 of Artemis nuclease activity blockers – biochemical, fluorescence intensity, dose response (AID 720701); assay type: functional;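 further: Artemis endonuclease enzyme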
Fibrinogen beta chain [19] = biological target: T8, Fibrinogen beta chain (Homo sapiens, UniProt P02675); assay: Fluorescence polarization-based biochemical high throughput dose response assay to identify inhibitors that disrupt the binding of a cyclic peptide (Tn6) to the fibrin proteolytic product D-Dimer and fragment E complex [DD(E )].
T8 sequence (P02675 whole entry): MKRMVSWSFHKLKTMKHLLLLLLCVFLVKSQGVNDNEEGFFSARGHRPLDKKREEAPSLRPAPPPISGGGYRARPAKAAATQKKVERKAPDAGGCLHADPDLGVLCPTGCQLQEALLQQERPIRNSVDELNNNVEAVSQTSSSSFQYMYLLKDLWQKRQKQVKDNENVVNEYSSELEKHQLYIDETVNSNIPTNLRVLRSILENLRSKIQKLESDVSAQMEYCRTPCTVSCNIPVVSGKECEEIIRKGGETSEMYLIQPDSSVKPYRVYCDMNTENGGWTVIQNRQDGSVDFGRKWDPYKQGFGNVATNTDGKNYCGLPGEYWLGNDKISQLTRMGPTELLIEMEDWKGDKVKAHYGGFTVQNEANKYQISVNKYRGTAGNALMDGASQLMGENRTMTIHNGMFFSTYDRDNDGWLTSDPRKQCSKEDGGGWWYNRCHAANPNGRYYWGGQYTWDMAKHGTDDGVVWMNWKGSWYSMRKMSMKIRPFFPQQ

[20] = biological target: Tyrosyl-DNA phosphodiesterase 2 (Homo sapiens, UniProt O95551); assay: potency against TDP2 phosphodiesterase activity – biochemical, epi absorbance, IC50, dose response (AID 743297)
Fibrinogen beta chain [21] = biological target: T8, Fibrinogen beta chain; assay: Fluorescence polarization-based biochemical high throughput dose response assay to identify inhibitors that disrupt the binding of a cyclic peptide (Tn7) to the fibrin proteolytic product D-Dimer and fragment E complex [DD(E )].
Danio rerio = assay: In Vivo Angiogenesis Dose-Response Confirmation. [Related pubchem assays: 732 (Assay preceding this confirmatory assay.)]; assay type: functional, organism-based

CCN(CC)c1ccc2c(-c3ccc(S(=O)(=O)O)cc3S(=O)(=O)[O-])c3ccc(=[N+](CC)CC)cc-3oc2c1
IC50 (Genome polyprotein [1]): > 49.8 µM (not active) | EC50 [2]: 11.7 µM (active) | IC50 [3]: > 39.8 µM (not active) | EC50 [4]: 11.4 µM (active) | EC50 [5]: 9.58 µM (active) | IC50 (Beta-lactamase [6]): > 59.6 µM (inactive) | IC50 [7]: 1.02 µM (active) | IC50 (Beta-lactamase [8]): > 59.6 µM (inactive) | CC50 [9]: 18.4 µM (active) | AC50 [10]: > 20 µM (inactive)

Cc1cccc(NC(=O)C2CCCN(C(=O)Nc3ccccc3)C2)c1C (stereo unspecified)
EC50 [11]: > 50 µM (not active)

Cc1ccc(-c2cc(C(=O)NCc3cnn(C)c3)c3cc(Br)ccc3n2)cc1
IC50 [12]: 1.56 µM (active) | IC50 [13]: 2.99 µM (active)

CCN(CCNC(=O)C1CCCN(S(=O)(=O)CC)C1)c1ccccc1 (stereo unspecified)
IC50 (Ephrin type-A receptor 4): > 100 µM (not active)

COc1cc(NCCCC(C)N)c2ncccc2c1 (stereo unspecified)
EC50 [14]: 42.5 µM (active) | IC50 (Bcl-2-like protein 10): 8.47 µM (active) | EC50 [15]: 34.3 µM (active) | IC50 (14-3-3 protein gamma): > 50 µM (not active) | AC50 [16]: 4.78 µM (active) | EC50 (Protein RecA): 420 nM (active) | IC50 (Genome polyprotein [17]): > 100 µM (active) | IC50 [18]: > 20 µM (inactive) | IC50 (Fibrinogen beta chain [19]): 54.4 µM (inactive) | IC50 [20]: 49.2 µM (inactive) | IC50 (Fibrinogen beta chain [21]): > 83.3 µM (inactive)

COc1cc2ncnc(Nc3cccc(Cl)c3)c2cc1OC [TYRPHOSTIN AG-1478]
IC50 (Danio rerio): 12.7 µM (not active)
